Results from paper PMC6376136, “Impact of lipid binding on the tertiary structure and allergenic potential of Jug r 3, the non-specific lipid transfer protein from walnut” (Scientific Reports, 2019).

Target: T1, Jug r 3 (Juglans regia, UniProt C5H617)
T1 construct: mature protein, secreted from Pichia pastoris GS115 (pPICZalphaA), signal peptide removed; four extra N-terminal residues EAEF; monomer
T1 sequence (C5H617 27-119): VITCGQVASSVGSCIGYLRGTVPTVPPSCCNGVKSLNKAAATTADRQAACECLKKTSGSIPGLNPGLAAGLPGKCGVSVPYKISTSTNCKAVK
Assay: ANS fluorescence displacement
Type: binding
Conditions: 10 uM protein, 10 uM ANS, protein:ligand 1:10 (100 uM ligand), overnight at 4 °C

% reduction of ANS fluorescence at protein:ligand 1:10: 31%
SMILES: CCCCCCCC/C=C\CCCCCCCC(=O)O [OLE, oleate]
